Measurements published in US20250154169A1, “COMPOUNDS AND METHODS FOR MODULATING SPLICING” (REMIX THERAPEUTICS INC., priority 2021, published 2025).
Where two headings read alike, the source gives them in different places.

Key:
K562 cells = assay: Cell Titer Glo 2.0 cell viability assay, K562; format: cell-based; conditions: Homo sapiens, 72 hours incubation
Procedure: Compounds described herein were screened for toxicity in K562 (human chronic myelogenous leukemia) and SH-SY5Y (human neuroblastoma) cells using a Cell Titer Glo 2.0 assay.
• Promega CellTiter-Glo® 2.0 Cell Viability Assay (cat #G9241) • Corning 384-well TC-treated microplates (cat #3570)
Cells were plated at 500 cells/well (K562 cells) in 45 μL of IMDM supplemented with 10% FBS in a 384-well opaque plate. Wells containing only medium were used as a blank control. Test compounds (e.g., compounds of Formula (I) or (II)) were first serially diluted in DMSO then diluted 1:100 with EIDM+10% FBS. The final concentration of DMSO was 0.1% in each well. The cells were incubated for 72 hours at 37° C. and 5% CO2 before assaying with Cell Titer Glo 2.0 reagent.

SMN2 mRNA = assay: Splicing RT-qPCR gene panel, SMN2 canonical junction (CJ) mRNA; format: cell-based, human; conditions: Homo sapiens, Tables 4A/4B, read-out: SMN2 (IC50, decrease in CJ mRNA, gene panel)
Procedure, shortened: (§1)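 First, A673 cells adhered 24 h before dosing, while K562 cells were plated and dosed directly. Both lines were then exposed to compound for 24 h at 37 °C, 5% CO2, top concentration 10 uM. Finally, lysates underwent RT-qPCR of the canonical junction, with ΔΔCt-based relative quantification.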

MYB mRNA = assay: Splicing RT-qPCR assay, MYB canonical (CJ) and alternative (AJ) junction mRNA; format: cell-based, human; conditions: Homo sapiens
Procedure, shortened: (§2)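 One-step RT-qPCR on cell lysates, CJ and AJ isoforms quantified; housekeeping normalization GAPDH/GUSB (K562) or PPIA (A673). Cells: A673 in DMEM/10% FBS or K562 in IMDM/10% FBS. Compounds 11-pt 3-fold, top 10 uM, 24 h, 37 °C, 5% CO2.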

HTT mRNA [1] = assay: Splicing RT-qPCR assay, HTT canonical (CJ) and alternative (AJ) junction mRNA; format: cell-based, human; conditions: Homo sapiens
Procedure, shortened: as §2

Target C mRNA = assay: Splicing RT-qPCR gene panel, Target C canonical junction (CJ) mRNA; format: cell-based, human; conditions: Homo sapiens, Tables 4A/4B, read-out: Target C (IC50, decrease in CJ mRNA, gene panel)
Procedure, shortened: as §1

HTT mRNA [2] = assay: Splicing RT-qPCR gene panel, HTT canonical junction (CJ) mRNA; format: cell-based, human; conditions: Homo sapiens, Tables 4A/4B, read-out: HTT (IC50, decrease in CJ mRNA, gene panel)
Procedure, shortened: as §1

[3] = Tables 4A/4B, canonical junction qPCR panel, read-out: MYB (IC50, decrease in CJ mRNA, gene panel)
[4] = Table 3B, canonical junction mRNA, RT-qPCR, read-out: MYB CJ (IC50, decrease in CJ mRNA)
[5] = Table 3B, alternative junction mRNA, RT-qPCR, read-out: MYB AJ (AC50, increase in AJ mRNA)
[6] = Table 3B, alternative junction mRNA, read-out: HTT AJ (AC50, increase in AJ mRNA)
[7] = Table 3B, canonical junction mRNA, read-out: HTT CJ (IC50, decrease in CJ mRNA)

SMILES | GI50 (K562 cells) [µM] | IC50 (SMN2 mRNA) [nM] | AC50 (MYB mRNA; 24 h, A673 or K562 cells, 24 hours compound treatment, RT-qPCR, read-out: MYB AJ (AC50, increase in alternative junction mRNA)) [nM] | IC50 (MYB mRNA; 24 h, A673 or K562 cells, 24 hours compound treatment, RT-qPCR, read-out: MYB CJ (IC50, decrease in canonical junction mRNA)) [nM] | IC50 (MYB mRNA; [3]) [nM] | IC50 (HTT mRNA [1]; 24 h, A673 or K562 cells, 24 hours compound treatment, read-out: HTT CJ (IC50, decrease in canonical junction mRNA)) [nM] | AC50 (HTT mRNA [1]; A673 or K562 cells, 24 hours compound treatment, read-out: HTT AJ (AC50, increase in alternative junction mRNA)) [nM] | IC50 (Target C mRNA) [nM] | IC50 (HTT mRNA [2]) [nM] | IC50 (MYB mRNA; [4]) [nM] | AC50 (MYB mRNA; [5]) [nM] | AC50 (HTT mRNA [1]; [6]) [nM] | IC50 (HTT mRNA [1]; [7]) [nM]
Cc1cn2cc(NC(=O)c3ccc(N(C)C4CCN(C)CC4)c4cc(C)oc34)cc(F)c2n1 [Compound 200] | 1 to 10 | < 100 | 1000 to 10000 | 1000 to 10000 | 1000 to 10000 | 1000 to 10000 | 1000 to 10000 | 1000 to 10000 | 1000 to 10000 |  |  |  | 
Cc1cn2cc(NC(=O)c3ccc(N4CCNCC4)c4cc(CO)nn34)cc(F)c2n1 [Compound 955] |  | < 100 |  |  | < 100 |  |  | > 10000 | 100 to 1000 | < 100 | < 100 | 1000 to 10000 | 100 to 1000
CCNC1CCN(c2ccc(C(=O)Nc3cc(F)c4nc(C)cn4c3)n3nc(CO)cc23)C1 (stereo not shown) [Compound 956] |  | < 100 |  |  | < 100 |  |  | 100 to 1000 | < 100 | < 100 | < 100 | 100 to 1000 | < 100
Cc1cn2cc(NC(=O)c3ccc(N4CC[C@@H](NC5CC5)C4)c4nc(C)nn34)cc(F)c2n1 [Compound 958] |  | < 100 |  |  | < 100 |  |  | > 10000 | 100 to 1000 | < 100 | < 100 | 1000 to 10000 | 100 to 1000
CCNC1CCN(c2ccc(C(=O)Nc3cc(F)c4nc(C)cn4c3)n3nc(CC)cc23)C1 (stereo not shown) [Compound 959] |  | < 100 |  |  | < 100 |  |  | 100 to 1000 | 100 to 1000 | < 100 | < 100 | 100 to 1000 | 100 to 1000
CCc1cc2c(N3CCNCC3)ccc(C(=O)Nc3cc(F)c4nc(C)cn4c3)n2n1 [Compound 960] |  | < 100 |  |  | 100 to 1000 |  |  | 100 to 1000 | 100 to 1000 | 100 to 1000 | 100 to 1000 | 100 to 1000 | 100 to 1000
CCNC1CCN(c2ccc(C(=O)Nc3cc(F)c4nc(C)cn4c3)n3nc(C(C)O)cc23)C1 (stereo not shown) [Compound 961] |  | < 100 |  |  | < 100 |  |  | 100 to 1000 | 100 to 1000 | < 100 | < 100 | 100 to 1000 | 100 to 1000
Cc1cn2cc(NC(=O)c3ccc(N4CC[C@@H](NC5CC5)C4)c4cc(C)nn34)cc(F)c2n1 [Compound 963] |  | < 100 |  |  | 100 to 1000 |  |  | > 10000 | 1000 to 10000 | 100 to 1000 | 100 to 1000 | 1000 to 10000 | 1000 to 10000
Cc1cn2cc(NC(=O)c3ccc(N4CC[C@@H](NC5CC5)C4)n4cc(C)nc34)cc(F)c2n1 [Compound 965] |  | < 100 |  |  | < 100 |  |  | 100 to 1000 | < 100 | < 100 | < 100 | < 100 | < 100
Cc1cn2cc(NC(=O)c3cnc(N4CCC(NC5CC5)C4)c4cn(C)nc34)cc(F)c2n1 (stereo not shown) [Compound 966] |  | < 100 |  |  | < 100 |  |  | < 100 | < 100 | < 100 | < 100 | < 100 | < 100
COc1c(NC(=O)c2ccc(N3CC[C@@H](NC4CC4)C3)c3nc(C)nn23)cn2cc(C)nc2c1F [Compound 968] |  | < 100 |  |  | < 100 |  |  | 1000 to 10000 | 100 to 1000 | < 100 | 100 to 1000 | 1000 to 10000 | 100 to 1000
CCn1cc2c(N3CCC(N)(CC)CC3)ncc(C(=O)Nc3cc(F)c4nc(C)cn4c3)c2n1 [Compound 969] |  | < 100 |  |  | < 100 |  |  | 1000 to 10000 | 1000 to 10000 | < 100 | < 100 | > 10000 | 1000 to 10000
Cc1cn2cc(NC(=O)c3ccc(N4C[C@@H](C)N[C@@H](C)C4)c4csnc34)cc(F)c2n1 [Compound 971] |  | < 100 |  |  | < 100 |  |  | 100 to 1000 | 100 to 1000 | < 100 | < 100 | 100 to 1000 | 100 to 1000
Cc1cn2cc(NC(=O)c3ccc(N4CC[C@@H](NC5CC5)C4)c4csnc34)cc(F)c2n1 [Compound 973] |  | < 100 |  |  | < 100 |  |  | 1000 to 10000 | 1000 to 10000 | < 100 | < 100 | 1000 to 10000 | 1000 to 10000
Cc1cn2cc(NC(=O)c3ccc(N4CCC(NC5CC5)CC4)c4csnc34)cc(F)c2n1 [Compound 974] |  | < 100 |  |  | < 100 |  |  | 100 to 1000 | 100 to 1000 | < 100 | < 100 | 100 to 1000 | 100 to 1000
Cc1cn2cc(NC(=O)c3c(F)cc(N4CC[C@@H](NC5CCC5)C4)c4csnc34)cc(F)c2n1 [Compound 976] |  | < 100 |  |  | < 100 |  |  | 1000 to 10000 | 100 to 1000 | < 100 | < 100 | 1000 to 10000 | 100 to 1000
Cc1cn2cc(NC(=O)c3ccc(N4C[C@@H](C)N[C@@H](C)C4)c4nsnc34)cc(F)c2n1 [Compound 978] |  | < 100 |  |  | < 100 |  |  | 1000 to 10000 | 100 to 1000 | < 100 | < 100 | 100 to 1000 | 100 to 1000
Cc1cn2cc(NC(=O)c3ccc(N4CCC(N(C)C)CC4)c4csnc34)cc(F)c2n1 [Compound 979] |  | < 100 |  |  | < 100 |  |  | 1000 to 10000 | 100 to 1000 | < 100 | < 100 | 100 to 1000 | 100 to 1000
